Measurements published in ChEMBL document CHEMBL1142346, “Quantitative structural-activity relationship (QSAR) study for fungicidal activities of thiazoline derivatives against rice blast” (2008).

Tested on: Pyricularia grisea
Experiment: Antifungal activity against Magnaporthe grisea infected rice plant assessed as logarithm of fungal control value at 100 ppm after 5 days
Format: functional

Row | SMILES | Activity
1 | CC(C)Oc1ccc(/N=c2/scc(CC(=O)Nc3ccc(C(F)F)cc3)n2C)cc1 | 1.7
2 | Cn1c(CC(=O)Nc2ccc(Cl)cc2)cs/c1=N\c1ccc(Oc2ccccc2)cc1 | 1.92
3 | COc1ccc(NC(=O)Cc2cs/c(=N\c3ccc(C(F)(F)F)cc3)n2C)cc1 | 1.99
4 | Cn1c(CC(=O)Nc2ccc(Cl)cc2)cs/c1=N\c1ccc(F)c(Cl)c1 | 1.98
5 | CCOc1ccc(NC(=O)Cc2cs/c(=N\c3ccc(F)c(Cl)c3)n2C)cc1 | 1.94
6 | COc1ccc(NC(=O)Cc2cs/c(=N\c3cccc([N+](=O)[O-])c3)n2C)cc1 | 1.99
7 | Cn1c(CC(=O)Nc2ccc(OC(F)(F)F)cc2)cs/c1=N\c1cccc(C(F)(F)F)c1 | 1.7
8 | Cn1c(CC(=O)Nc2ccc(Br)cc2)cs/c1=N\c1cccc(F)c1 | 1.9
9 | CCc1ccc(NC(=O)Cc2cs/c(=N\c3ccc(Br)cc3C)n2C)cc1 | 1.98
10 | COc1ccc(/N=c2\scc(CC(=O)Nc3ccc(C(F)F)cc3)n2C)cc1 | 1.4
11 | CCCCc1ccc(/N=c2/scc(CC(=O)Nc3ccc(OC)cc3)n2C)cc1 | 1.98
12 | COc1ccc(NC(=O)Cc2cs/c(=N/c3ccc(Cl)cc3)n2C)cc1 | 1.97
13 | Cc1ccc(NC(=O)Cc2cs/c(=N\c3ccccc3F)n2C)cc1 | 1.94
14 | CCCCc1ccc(NC(=O)Cc2cs/c(=N\c3cccc(F)c3)n2C)cc1 | 1
15 | Cn1c(CC(=O)Nc2ccc(OC(F)(F)F)cc2)cs/c1=N\c1cccc(Br)c1 | 1.7
16 | CCc1ccc(NC(=O)Cc2cs/c(=N\c3cccc(Cl)c3C)n2C)cc1 | 1.95
17 | CCc1ccc(NC(=O)Cc2cs/c(=N\c3ccc(F)cc3Cl)n2C)cc1 | 1.98
18 | CCc1ccc(NC(=O)Cc2cs/c(=N\c3ccc(Br)cc3F)n2C)cc1 | 2
19 | CCOc1ccc(/N=c2/scc(CC(=O)Nc3ccc(OC)cc3)n2C)cc1 | 1.98
20 | CCc1ccc(NC(=O)Cc2cs/c(=N\c3ccc(C)cc3Br)n2C)cc1 | 1.94
21 | COc1ccc(NC(=O)Cc2cs/c(=N/c3ccc([N+](=O)[O-])cc3)n2C)cc1 | 2
22 | CCc1ccc(NC(=O)Cc2cs/c(=N/c3ccc(Oc4ccccc4)cc3)n2C)cc1 | 1.98
23 | CCCCCCc1ccc(/N=c2/scc(CC(=O)Nc3ccc(CC)cc3)n2C)cc1 | 2
24 | CCOc1ccc(NC(=O)Cc2cs/c(=N\c3ccc(F)cc3F)n2C)cc1 | 1.9
25 | COc1ccc(NC(=O)Cc2cs/c(=N\c3ccc(Cl)c(C(F)(F)F)c3)n2C)cc1 | 2

Row | SMILES | Activity
26 | COc1ccc(NC(=O)Cc2cs/c(=N\c3cccc(C(F)(F)F)c3)n2C)cc1 | 2
27 | COc1ccc(NC(=O)Cc2cs/c(=N\c3ccc(C)cc3C)n2C)cc1 | 1.96
28 | COc1ccc(NC(=O)Cc2cs/c(=N\c3ccccc3Br)n2C)cc1 | 1.92
29 | COc1ccc(NC(=O)Cc2cs/c(=N\c3ccccc3C(C)C)n2C)cc1 | 1.9
30 | CCc1ccc(NC(=O)Cc2cs/c(=N\c3ccc(F)c([N+](=O)[O-])c3)n2C)cc1 | 1.98
31 | COc1ccc(/N=c2/scc(CC(=O)Nc3ccc(OC(F)(F)F)cc3)n2C)cc1 | 1.4
32 | COc1ccc(NC(=O)Cc2cs/c(=N\c3ccc(Cl)cc3F)n2C)cc1 | 1.97
33 | COc1ccc(NC(=O)Cc2cs/c(=N\c3ccc(F)cc3F)n2C)cc1 | 1.97
34 | CCCCc1ccc(/N=c2\scc(CC(=O)Nc3ccc(Cl)cc3)n2C)cc1 | 1.97
35 | CCc1ccc(NC(=O)Cc2cs/c(=N\c3cccc([N+](=O)[O-])c3)n2C)cc1 | 1.99
36 | Cn1c(CC(=O)Nc2ccc(Oc3ccccc3)cc2)cs/c1=N/c1ccc(Br)cc1 | 1.23
37 | CCCCOc1ccc(NC(=O)Cc2cs/c(=N/c3ccc(C(F)(F)F)cc3)n2C)cc1 | 1
38 | Cn1c(CC(=O)Nc2ccc(Oc3ccccc3)cc2)cs/c1=N/c1ccc(Oc2ccccc2)cc1 | 1.4
39 | Cn1c(CC(=O)Nc2ccc([N+](=O)[O-])cc2)cs/c1=N\c1ccc(F)cc1F | 1.23
40 | Cn1c(CC(=O)Nc2ccc(Oc3ccccc3)cc2)cs/c1=N\c1ccc(F)cc1F | 1.23
41 | CCCCc1ccc(/N=c2/scc(CC(=O)Nc3ccc([N+](=O)[O-])cc3)n2C)cc1 | 1.11
42 | COc1ccccc1/N=c1\scc(CC(=O)Nc2ccc(OC(F)(F)F)cc2)n1C | 0.7
43 | Cc1ccc(/N=c2\scc(CC(=O)Nc3ccc(OC(F)(F)F)cc3)n2C)c(C)c1 | 1.23
44 | Cn1c(CC(=O)Nc2ccc(C#N)cc2)cs/c1=N\c1ccc(F)cc1F | 1.23
45 | CCc1ccc(NC(=O)Cc2cs/c(=N/c3ccc(-c4ccccc4)cc3)n2C)cc1 | 1.99
46 | CCc1ccc(NC(=O)Cc2cs/c(=N\c3ccccc3F)n2C)cc1 | 1.99
47 | Cn1c(CC(=O)Nc2ccc(C(F)F)cc2)cs/c1=N\c1ccc(Br)cc1 | 1.4
48 | Cn1c(CC(=O)Nc2ccc(Br)cc2)cs/c1=N\c1cccc(Br)c1 | 1.99
49 | CCOc1ccc(NC(=O)Cc2cs/c(=N\c3cccc(Br)c3)n2C)cc1 | 1.91
50 | Cn1c(CC(=O)Nc2ccc([N+](=O)[O-])cc2)cs/c1=N/c1ccc(C#N)cc1 | 0.7

Row | SMILES | Activity
51 | Cc1ccc(NC(=O)Cc2cs/c(=N/c3ccc(F)cc3)n2C)cc1 | 1.96
52 | CCc1ccc(NC(=O)Cc2cs/c(=N\c3ccc(Cl)cc3Cl)n2C)cc1 | 1.96
53 | CCc1ccc(NC(=O)Cc2cs/c(=N/c3ccc(CC#N)cc3)n2C)cc1 | 2
54 | CCc1ccc(NC(=O)Cc2cs/c(=N/c3ccc(C(C)=O)cc3)n2C)cc1 | 2
55 | Cc1ccc(NC(=O)Cc2cs/c(=N/c3ccc(Br)cc3)n2C)cc1 | 1.94
56 | COc1ccc(NC(=O)Cc2cs/c(=N\c3ccc(C)c(F)c3)n2C)cc1 | 1.98
57 | COc1ccc(NC(=O)Cc2cs/c(=N\c3ccc(OC)c(Cl)c3)n2C)cc1 | 1.98
58 | Cn1c(CC(=O)Nc2ccc([N+](=O)[O-])cc2)cs/c1=N/c1ccc(F)cc1 | 0.9
59 | CCCCCOc1ccc(/N=c2/scc(CC(=O)Nc3ccc(CC)cc3)n2C)cc1 | 1.96
60 | CCc1ccc(NC(=O)Cc2cs/c(=N/c3ccc(I)cc3)n2C)cc1 | 1.97
61 | CCc1ccc(NC(=O)Cc2cs/c(=N\c3ccc(OC)cc3C)n2C)cc1 | 2
62 | Cc1ccc(NC(=O)Cc2cs/c(=N\c3ccc(F)cc3F)n2C)cc1 | 1.99
63 | COc1ccc(NC(=O)Cc2cs/c(=N\c3ccc(Cl)c(Cl)c3)n2C)cc1 | 1.98
64 | Cn1c(CC(=O)Nc2ccc(Cl)cc2)cs/c1=N\c1ccc(OC(F)(F)F)cc1 | 1.82
65 | CCc1ccc(NC(=O)Cc2cs/c(=N\c3ccc(Cl)cc3F)n2C)cc1 | 1.99
66 | Cn1c(CC(=O)Nc2ccc(C(F)F)cc2)cs/c1=N\c1ccc(Cl)cc1 | 1.52
67 | CC(C)c1ccc(NC(=O)Cc2cs/c(=N/c3ccc(C(F)(F)F)cc3)n2C)cc1 | 1.8
68 | COc1ccc(NC(=O)Cc2cs/c(=N\c3cccc(C)c3)n2C)cc1 | 1.98
69 | COc1ccc(NC(=O)Cc2cs/c(=N\c3ccccc3F)n2C)cc1 | 1.99
70 | Cn1c(CC(=O)Nc2ccc([N+](=O)[O-])cc2)cs/c1=N\c1cccc(F)c1 | 1.23
71 | Cn1c(CC(=O)Nc2ccc(OC(F)(F)F)cc2)cs/c1=N\c1cccc(F)c1 | 1.62
72 | COc1ccc(NC(=O)Cc2cs/c(=N\c3ccc(F)c(Cl)c3)n2C)cc1 | 1.98
73 | CCc1ccc(NC(=O)Cc2cs/c(=N\c3ccc([N+](=O)[O-])cc3OC)n2C)cc1 | 1.81
74 | COc1ccc(NC(=O)Cc2cs/c(=N/c3ccc(SC)cc3)n2C)cc1 | 1.96
75 | CCc1ccc(/N=c2\scc(CC(=O)Nc3ccc(OC)cc3)n2C)cc1 | 1.98

Row | SMILES | Activity
76 | CCc1ccc(NC(=O)Cc2cs/c(=N\c3ccc(Br)cc3)n2C)cc1 | 1.98
77 | Cn1c(CC(=O)Nc2ccc(Cl)cc2)cs/c1=N\c1cccc(Br)c1 | 1.98
78 | Cn1c(CC(=O)Nc2ccc(Oc3ccccc3)cc2)cs/c1=N\c1cccc(F)c1 | 1.23
79 | CCc1ccc(NC(=O)Cc2cs/c(=N/c3ccc(Cl)cc3)n2C)cc1 | 2
80 | CCc1ccc(NC(=O)Cc2cs/c(=N/c3ccc(C#N)cc3)n2C)cc1 | 1.92
81 | COc1ccc(NC(=O)Cc2cs/c(=N\c3cccc(Br)c3)n2C)cc1 | 1.99
82 | COc1cccc(/N=c2\scc(CC(=O)Nc3ccc(Cl)cc3)n2C)c1 | 1.76
83 | COc1ccc(NC(=O)Cc2cs/c(=N\c3ccccc3Cl)n2C)cc1 | 1.98
84 | Cn1c(CC(=O)Nc2ccc(Cl)cc2)cs/c1=N\c1cccc(F)c1 | 1.96
85 | CCc1ccc(NC(=O)Cc2cs/c(=N\c3ccc(F)c(Cl)c3)n2C)cc1 | 1.98
86 | Cn1c(CC(=O)Nc2ccc(Cl)cc2)cs/c1=N\c1ccc(-c2ccccc2)cc1 | 1.98
87 | Cn1c(CC(=O)Nc2ccc(OC(F)(F)F)cc2)cs/c1=N/c1ccc(Cl)cc1 | 1.52
88 | CCc1ccc(NC(=O)Cc2cs/c(=N\c3ccc(C)cc3Cl)n2C)cc1 | 2
89 | CCCCc1ccc(NC(=O)Cc2cs/c(=N\c3ccc(F)c(Cl)c3)n2C)cc1 | 1.3
90 | Cn1c(CC(=O)Nc2ccc(OC(F)(F)F)cc2)cs/c1=N\c1ccc(F)cc1 | 0.9
91 | Cn1c(CC(=O)Nc2ccc(Oc3ccccc3)cc2)cs/c1=N\c1cccc(Br)c1 | 0.9
92 | COc1ccc(NC(=O)Cc2cs/c(=N/c3ccc(OC(F)(F)F)cc3)n2C)cc1 | 1.99
93 | CCc1ccc(NC(=O)Cc2cs/c(=N\c3ccc(C#N)c(Cl)c3)n2C)cc1 | 1.98
94 | CCCCc1ccc(/N=c2/scc(CC(=O)Nc3ccc(CC)cc3)n2C)cc1 | 1.99
95 | CCc1ccc(NC(=O)Cc2cs/c(=N\c3ccc(Br)c(C)c3)n2C)cc1 | 1.98
96 | CCCCOc1ccc(NC(=O)Cc2cs/c(=N\c3cccc(F)c3)n2C)cc1 | 1
97 | COc1ccc(NC(=O)Cc2cs/c(=N\c3cccc(F)c3)n2C)cc1 | 1.97
98 | CCc1ccc(NC(=O)Cc2cs/c(=N/c3ccc(OC(F)(F)F)cc3)n2C)cc1 (stereo in doubt; 5) | 1.99
99 | CCc1ccc(NC(=O)Cc2cs/c(=N/c3ccc(OC(F)(F)F)cc3)n2C)cc1 (stereo in doubt; 8) | 1.93
